# Entries after “also recorded” stand apart in the source; their conditions may differ. Where two headings read alike, the source gives them in different places.
# Key:
# [1] = test system: Candida albicans ATCC 752; assay: Antifungal activity in vitro by flow cytometry, Candida albicans ATCC 752; format: cell-based; conditions: read-out: CF50 Candida albicans ATCC 752
# Procedure: (§1) The antifungal activity of the polyene macrolide derivate of the present invention was determined by flow cytometry method earlier described (Pinto et al., J. Medical Microbiology, 2009; 58, 1454-1462; Pina-Vaz and Rodriguez, Methods Mol. Biol. 2010; 638:281-289). For the test two strains of Candida albicans (ATCC 10231 and 752) and Candida kruzei were used. A cellular suspension of 1×10^6 UFC/mL was used, which has sown in 96-well plates. […] As controls were used: untreated yeasts (control of living cells), yeasts exposed to UV radiation (arrest, inhibition of proliferation), and yeasts exposed at temperature of 100° C. (dead yeasts). Cells were collected by centrifugation at 10,000×g for 10 min, they were washed once in phosphate buffer. […] of propidium iodide 0.1 mg/mL were added to the cell suspension. It was incubated during 30 minutes at room temperature and protected from light. Finally, the samples were analyzed by flow cytometry (Becton-Dickinson Facsc Calibur, laser argon 480 nm). The intrinsic parameters and fluorescence in the FL2 channel (yellow/orange fluorescence) for FUN and channel FL3 (red fluorescence, filter 630 nm) for propidium iodide were acquired and registered on a logarithmic scale for a minimum of 7500 events per sample. For data analysis, the quadrants were adjusted in a plot of data lines of fluorescence intensity of samples. […] These quadrants were used to quantify the percentile of cells showing altered fluorescence compared to drug-free controls.
# Candida kruzei = assay: Antifungal activity in vitro by flow cytometry, Candida kruzei; format: cell-based; conditions: read-out: CF50 Candida kruzei
# Procedure: as §1
# [2] = test system: Saccharomyces cerevisae FY833(SC) cells; assay: Viability of Saccharomyces cerevisae FY833 (SC) cells at various concentrations; format: cell-based; conditions: FIG. 1, various concentrations; listed as amide 7
# Procedure: All derivatives were tested for antibiotic activity in yeast cultures of S. cerevisiae.
# [3] = test system: Saccharomyces cerevisae FY833(SC) cells compared with human renal cells 293Q; conditions: FIG. 3
# Candida albicans DSY294 = conditions: Carreira E.; cited from earlier work
# physchem = conditions: DMSO, organic solvent or mixture
# [4] = test system: Candida albicans ATCC 10231; assay: Antifungal activity in vitro by flow cytometry, Candida albicans ATCC 10231; format: cell-based; conditions: ATCC10231, 24 h at 37° C., read-out: CF50 Candida albicans ATCC 10231
# Procedure: as §1
# [5] = 10 μM AmB; from Venegas et al.; cited from earlier work
# Candida albicans (10231) = conditions: Preobrazhenskaya M; cited from earlier work
# [6] = comparison value, source not given; cited from earlier work
# [7] = Unit channel studies in chicken egg lecithin bilayers with ergosterol; conditions: AmB 2 μM; 30° C.
# Procedure: Unit channel studies were performed according to procedures described earlier (Cotero, et al., supra, Venegas, et al., supra). Required liposomal suspensions were prepared using lecithin with cholesterol or ergosterol. These suspensions were placed in an ultrasonic bath for 15 minutes to produce unilamellar vesicles. Subsequently, the suspension was placed in a 100 μl eppendorf and a lipid bilayer was formed on the tip of a micro-electrode. The unit channels of amphotericin and of the invented compounds were incorporated to this bilayer. The unit channel current of the various compounds was recorded with an electrometer, and then these records were analyzed by determining the activity of the compounds and the characteristics of the channels formed.
# The activity is determined by the presence of the various channels formed by polyenes in the lipid bilayer (Cotero, et al., supra, Venegas, et al., supra). […] This conductance is the effect of all the channels present and was determined by the unit channel technique earlier described.
Compound,"IC50 ([1]; ATCC752, 24 h)",IC50 (Candida kruzei; 24 h),inhibitory capacity / potency on SC cells compared to AmB [2],advantage of selectivity over AmB (factor) [3],MIC-Candida albicans DSY294 (Candida albicans DSY294),solubility (physchem),IC50 [4],"Opening probability, channel type I [5]","Opening probability, channel type II [5]","Opening probability, channel type III [5]","Opening probability, channel type IV [5]","Opening probability, channel type V [5]","Opening probability, channel type VI [5]","IC50 ([1]; ATCC752, 24 h at 37° C.)",MIC50-Candida albicans (10231) (Candida albicans (10231)),IC50 (Candida kruzei; 24 h at 37° C.),solubility of AmB [6],Average conductance ergosterol [7]
"COC(=O)[C@@H](Cc1c[nH]c2ccccc12)NC(=O)[C@@H]1C(O)C[C@@]2(O)C[C@@H](O)C[C@@H](O)[C@H](O)CC[C@@H](O)C[C@@H](O)CC(=O)OC(C)C(C)[C@H](O)C(C)/C=C/C=C/C=C/C=C/C=C/C=C/C=C/[C@H](OC3OC(C)C(O)C(N)C3O)CC1O2 (stereo partly drawn) [A-7, N-(D)-tryptophanamide of AmB]",8.2 µM,> 10 µM,the most similar; also recorded: the highest power of the derivatives,4,,,,,,,,,,,,,,
"C[C@@H]1[C@H](O)[C@@H](C)/C=C/C=C/C=C/C=C/C=C/C=C/C=C/[C@H](O[C@@H]2O[C@H](C)[C@@H](O)[C@H](N)[C@@H]2O)C[C@@H]2O[C@](O)(C[C@@H](O)C[C@@H](O)[C@H](O)CC[C@@H](O)C[C@@H](O)CC(=O)O[C@H]1C)C[C@H](O)[C@H]2C(=O)O [AmB, Amphotericin B]",,,,,0.0004 mM,≤ 20 mM,0.2 µM,0.59%,0.26%,0.08%,4.06%,1.81%,0.93%,1 µM,0.11 µg/mL,> 10 µM,10 µg/mL,600 ± 210 fS

# Reference: patent US20140256663A1, “Amphotericin Analogous Compounds and Pharmaceutical Compositions Containing Them” (CENTRO DE INVESTIGACION Y DE ESTUDIOS AVANZADOS DEL …, priority 2010, published 2014)
